From patent US20240270762A1, “PENICILLIN-BINDING PROTEIN INHIBITORS” (priority 2021, published 2024)
In brackets after ≈: the same amount, converted by molar mass.

How the values were obtained:
[1] = tested on: P. aeruginosa (ΔmexAB-oprM); assay: Broth microdilution MIC in CAMHB; format: cell-based; conditions: Pseudomonas aeruginosa; read-out: MIC P. aeruginosa ΔmexAB-oprM
E. coli AG100 = assay: microbe, parasite or virus in culture; format: cell-based; conditions: Escherichia coli, AG100, read-out: MIC E. coli AG100
K. pneumoniae 848844 = assay: microbe, parasite or virus in culture; format: cell-based; conditions: Klebsiella pneumoniae, 848844, read-out: MIC K. pneumoniae 848844
N. gonorrhoeae WHO X = assay: Liquid broth MIC in Fastidious broth; conditions: Neisseria gonorrhoeae, read-out: Minimum Inhibitory Concentration (MIC), N. gonorrhoeae WHO X
N. gonorrhoeae FA1090 = assay: Liquid broth MIC in Fastidious broth; conditions: Neisseria gonorrhoeae, FA1090, read-out: Minimum Inhibitory Concentration (MIC), N. gonorrhoeae FA 1090
P. aeruginosa ATCC 27853 = assay: microbe, parasite or virus in culture; format: cell-based; conditions: Pseudomonas aeruginosa, ATCC27853, read-out: MIC P. aeruginosa ATCC 27853
N. gonorrhoeae WHO G = assay: Liquid broth MIC in Fastidious broth; conditions: Neisseria gonorrhoeae, read-out: Minimum Inhibitory Concentration (MIC), N. gonorrhoeae WHO G
[2] = target: T1, PBP3 from Pseudomonas aeruginosa (PAO1) (Pseudomonas aeruginosa, UniProt G3XD46); assay: Bocillin-FL fluorescence polarization competition binding, P. aeruginosa PBP3; conditions: Binding affinity to P. aeruginosa PBP3; fluorescence polarization competition binding assay using Bocillin-FL; read-out: P. aeruginosa PBP3 Potency
T1 construct: made in house
Summary of the method: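 Purified PBPs pre-incubated with inhibitor (E. coli PBP3 1.5 μM, 30 min; P. aeruginosa PBP3 0.75 μM, A. baumannii PBP1a 1 μM and PBP3 0.2 μM, 15 min), then Bocillin-FL 0.1 μM (0.05 μM for PBP1a) added; FP read up to 60 min. EC50 = concentration halving bound Bocillin-FL.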

T1 sequence (G3XD46 whole entry): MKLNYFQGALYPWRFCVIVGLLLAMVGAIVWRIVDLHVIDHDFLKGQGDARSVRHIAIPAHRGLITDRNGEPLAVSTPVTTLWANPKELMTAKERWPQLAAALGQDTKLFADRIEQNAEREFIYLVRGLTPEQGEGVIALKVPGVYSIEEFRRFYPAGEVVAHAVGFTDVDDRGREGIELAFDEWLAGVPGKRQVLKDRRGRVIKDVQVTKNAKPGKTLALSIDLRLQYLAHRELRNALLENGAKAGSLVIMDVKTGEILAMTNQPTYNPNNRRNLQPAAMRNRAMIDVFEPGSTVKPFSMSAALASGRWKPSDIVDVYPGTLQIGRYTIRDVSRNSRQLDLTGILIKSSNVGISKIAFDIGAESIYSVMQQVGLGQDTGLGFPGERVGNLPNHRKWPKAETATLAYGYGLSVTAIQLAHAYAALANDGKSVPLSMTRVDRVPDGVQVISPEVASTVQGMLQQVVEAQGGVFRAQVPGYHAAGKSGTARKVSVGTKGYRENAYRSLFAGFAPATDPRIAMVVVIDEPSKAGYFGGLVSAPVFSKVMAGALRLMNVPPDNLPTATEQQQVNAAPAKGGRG

Row | Compound | MIC [1] | MIC (E. coli AG100) | MIC (K. pneumoniae 848844) | MIC (N. gonorrhoeae WHO X) | MIC (N. gonorrhoeae FA1090) | MIC (P. aeruginosa ATCC 27853) | MIC (N. gonorrhoeae WHO G) | IC50 [2]
1 | CCN1CCN(C(=O)NC(C(=O)N[C@H]2Cc3cccc(C(=O)O)c3OB2O)c2ccc(P(=O)(O)O)cc2)C1=O (stereo partly drawn) [Example 42, (3R)-3-(2-(3-ethyl-2-oxoimidazolidine-1-carboxamido)-2-(4-phosphonophenyl)acetamido)-2-hydroxy-3,4-dihydro-2H-benzo[e][1,2]oxaborinine-8-carboxylic acid] | 8 to 16 µg/mL (≈ 14.3 to 28.6 µM) | 32 to 64 µg/mL (≈ 57.1 to 114 µM) | > 128 µg/mL | 1 to 2 µg/mL (≈ 1.78 to 3.57 µM) | < 1 µg/mL | > 128 µg/mL | < 1 µg/mL | < 10 µM
2 | O=C(O)c1cccc2c1OB(O)[C@@H](NC(=O)C(NC(=O)c1ccc[nH]c1=O)c1ccc(P(=O)(O)O)cc1)C2 (stereo partly drawn) [Example 174, (3R)-2-hydroxy-3-(2-(2-oxo-1,2-dihydropyridine-3-carboxamido)-2-(4-phosphonophenyl)acetamido)-3,4-dihydro-2H-benzo[e][1,2]oxaborinine-8-carboxylic acid] | 32 to 64 µg/mL (≈ 59.1 to 118 µM) | > 128 µg/mL | > 128 µg/mL | 16 to 32 µg/mL (≈ 29.6 to 59.1 µM) | 1 to 2 µg/mL (≈ 1.85 to 3.7 µM) | > 128 µg/mL | 1 to 2 µg/mL (≈ 1.85 to 3.7 µM) | 10 to 50 µM
3 | CN1CCN(C(=O)NC(C(=O)N[C@H]2Cc3cccc(C(=O)O)c3OB2O)c2ccc(P(=O)(O)O)cc2)C1=O (stereo partly drawn) [Example 41, (3R)-2-hydroxy-3-(2-(3-methyl-2-oxoimidazolidine-1-carboxamido)-2-(4-phosphonophenyl)acetamido)-3,4-dihydro-2H-benzo[e][1,2]oxaborinine-8-carboxylic acid] | 8 to 16 µg/mL (≈ 14.6 to 29.3 µM) | 32 to 64 µg/mL (≈ 58.6 to 117 µM) | > 128 µg/mL | 1 to 2 µg/mL (≈ 1.83 to 3.66 µM) | < 1 µg/mL | > 128 µg/mL | < 1 µg/mL | < 10 µM
4 | O=C(O)c1cccc2c1OB(O)[C@@H](NC(=O)[C@@H](NC(=O)N1CCNC1=O)c1ccc(P(=O)(O)O)cc1)C2 [Example 39, (R)-2-hydroxy-3-((S)-2-(2-oxoimidazolidine-1-carboxamido)-2-(4-phosphonophenyl)acetamido)-3,4-dihydro-2H-benzo[e][1,2]oxaborinine-8-carboxylic acid] | > 128 µg/mL | > 128 µg/mL | > 128 µg/mL | 16 to 32 µg/mL (≈ 30.1 to 60.1 µM) | < 1 µg/mL | > 128 µg/mL | < 1 µg/mL | 10 to 50 µM
5 | O=C(NC(C(=O)N[C@H]1Cc2cccc(C(=O)O)c2OB1O)c1ccc(P(=O)(O)O)cc1)c1ccccn1 (stereo partly drawn) [Example 32, (3R)-2-hydroxy-3-(2-(4-phosphonophenyl)-2-(picolinamido)acetamido)-3,4-dihydro-2H-benzo[e][1,2]oxaborinine-8-carboxylic acid] | 32 to 64 µg/mL (≈ 60.9 to 122 µM) | > 128 µg/mL | > 128 µg/mL | 16 to 32 µg/mL (≈ 30.5 to 60.9 µM) | < 1 µg/mL | > 128 µg/mL | < 1 µg/mL | < 10 µM
